Values of other authors as cited in US20080015223A1, “Pyrazole Derivatives as Modulators of the 5-Ht2a Serotonin Receptor Useful for the Treatment of Disorders Related Thereto” (Arena Pharmaceuticals, Inc., priority 2004, published 2008).

Tests used:
[1] = test system: rats
[2] = test system: spontaneously hypertensive rats
[3] = test system: JC virus
[4] = test system: rats; remark: listed apart in the source
[5] = 24 months of treatment, patients
[6] = glaucoma patients
[7] = humans, lumbar disc herniation

## CN1CCN2c3ccccc3Cc3ccccc3C2C1 (stereo not drawn) [Mainserin]
[1]
  DOCA-salt induced hypertension: prevent

## O=C(c1ccc(F)cc1)C1CCN(CCn2c(=O)[nH]c3ccccc3c2=O)CC1 [ketanserin]
[2]
  blood pressure: stabilize
[3]
  JC virus infection of human glial cells: inhibited

## Cc1nc2sccn2c(=O)c1CCN1CCC(=C(c2ccc(F)cc2)c2ccc(F)cc2)CC1 [ritanserin]
[3]
  JC virus infection of human glial cells: inhibited

## COc1cccc(CCc2ccccc2OCC(CN(C)C)OC(=O)CCC(=O)O)c1 (stereo not drawn) [sarpogrelate]
[4]; intraperitoneal administration
  analgesic effect on thermal induced pain: significant analgesic effect
[4]; intrathecal or intraperitoneal administration
  analgesic effect on inflammatory pain: significant analgesic effect
[5]
  urinary albumin excretion level: significantly reduced
[6]
  IOP: significantly lower
[7]
  treatment for lower back pain, leg pain and numbness associated with sciatica: effective treatment
